Measured values: patent US7256012B2, “Fluorogenic protease substrates based on dye-dimerization” (3M Innovative Properties Company, priority 1997, dated 2007)

How the values were obtained:
[1] = system: Vibrio parahaemolyticus; test: Use of fluorogenic protease substrate to detect Vibrio parahaemolyticus (cleavage by trypsin-like enzyme); type: cell-based; conditions: Vibrio parahaemolyticus cells, 1 mM EDTA, 50 mM phosphate buffer pH 7.2, incubated overnight; with vs without cells
Protocol: Vibrio parahaemolyticus used in these experiments was a quality control strain for the Transport Swab System of Becton Dickinson Microbiology Systems (Cockeysville, Md.). It was purchased from American Tissue Culture Collection (ATCC accession no. 49398). Cells were grown at 37° C. in nutrient broth with 3 percent sodium chloride. Ten ml of overnight culture was centrifuged. Broth was disposed and 3 ml of assay buffer added (1 mM EDTA, 50 mM phosphate buffer at pH 7.2) containing 50 μl of dual labeled conjugate of formula I, 1000 dilution (see Example 1, procedure for making labeled peptide). To ensure complete cleavage the reaction mixture was incubated overnight. Fluorescence intensity of cuvettes with and without cells was measured, (tracings C and D, respectively).

[2] = Fluorescence of the intact dual-labeled conjugate versus singly labeled counterpart; type: physicochemical
Excerpt: SEQ ID NO. 1 Val-Pro-Arg-Gly-Lys was synthesized by GeneMed Biotechnologies (South San Francisco, Calif.) and purified on reverse phase high performance liquid chromatography (HPLC). Its chemical identity was confirmed by Fast Atom Bombardment (FAB) mass spectroscopy and amino acid analysis. The peptide was reacted overnight with tetramethylrhodamine succimidyl ester in 0.1M sodium bicarbonate, pH 8.3. The reaction mixture was purified on reversed phase HPLC (C-18 column, particle size 15 μm, Waters Corp., Milford, Mass.). All chemically reactive dyes were purchased from Molecular Probes, Eugene, Oreg. The dye-peptide conjugate had the chemical structure of SEQ ID NO. 2 TMR-Val-Pro-Arg-Gly-Lys-TMR (designated T-VPRGK-T in FIG. 2) as shown in Formula I, below. A composite gradient of acetonitrile (ACN) in water was used to purify this conjugate. In a typical elution, the acetonitrile content was increased from 15% to 30% during the initial 15 minutes, followed by a 10-minute isocratic elution at 30% ACN, a 5-minute gradient to 50%, then 5-minute isocratic elution at 50% ACN. All solvents contained 0.1% trifluoroacetic acid. The molecular weight of the purified conjugate, determined by FAB mass spectroscopy, was 1379 which was the calculated molecular mass based on the elemental composition of C74H85N13O14.

TMR-Val-Pro-Arg-Gly-Lys-TMR (XPRGX; not fully specified; TMR dye at both ends) [T-VPRGK-T]
change in fluorescence on cleavage by the trypsin-like enzyme [1]: increase in fluorescence | fluorescence of dual-labeled conjugate versus singly labeled counterpart [2]: substantially lower fluorescence than its singly labeled counterpart
